In data set [1] the test system is diabetic db/db mice. As to the kind of experiment: Diabetic nephropathy model: male diabetic db/db mice treated for 12 weeks (renal histology, immunohistochemistry, albumin excretion). Type of data set: in vivo, mouse. As to conditions: for effect on fasted or post-prandial glucose levels / Podocalyxin expression (glomerular staining score 0-3): 12 weeks; for Podocalyxin expression (glomerular staining score 0-3): linagliptin 3 mg/kg/day, enalapril 20 mg/kg/day, db/db vehicle 1.59±0.2, db/+ 2.65±0.1; for glomerular mesangial matrix expansion compared with diabetic vehicle / tubulointerstitial fibrosis compared with diabetic vehicle: histology. The procedure:
The expression of podocalyxin is analyzed by immunohistochemistry using a podocalyxin specific antibody. Kidney sections from male diabetic db/db mice (10 weeks old at start and treated for 3 months) in the following groups are analyzed:
Diabetic control (n=10), linagliptin 3 mg/kg (n=8), enalapril 20 mg/kg (n=10) and heterozygous control mice (n=8).
All of the evaluations of the glomerular staining intensities are done semiquantitatively by two different experts of kidney pathology blinded for the slides.
The predefined scoring gradient is 0, 1, 2, and 3. 0 means no expression, whereas 3 is given when expression is highest. Group means are compared with a non-parametric test. P values less than 0.05 are considered significant.
Diabetic nephropathy is the main cause of end-stage renal disease. This study investigated the effects of linagliptin on diabetic nephropathy in severe insulin-resistant and old db/db mice as a model for diabetic nephropathy. Male diabetic db/db mice (10 weeks) were divided into 3 groups and treated for 12 weeks with vehicle (n=10), linagliptin 3 mg/kg/day (n=8), or the angiotensin converting enzyme (ACE) inhibitor enalapril 20 mg/kg/day (n=10).
Heterozygous db/+ mice treated with vehicle were used as controls (n=8). Levels of glucose, triglycerides, insulin, cystatin C and creatinine were analyzed in serum and urine samples at baseline and monthly thereafter. Body weight, urinary albumin excretion and OGTT were monitored periodically.
Renal histology (glomerulosclerosis, tubulointerstitial fibrosis) and expression of the sialoglycoprotein podocalyxin (a marker of podocyte integrity in the glomeruli, marker for glomerular damage), glucagon-like peptide 1 receptor (GLP-1R), alpha-smooth muscle actin and type I collagen were evaluated at the end of the study.

Data set [2] is described as follows: Pharmacokinetics of BI 1356, multiple oral doses once daily for 12 days in patients with type 2 diabetes. The conditions noted are these: for feT,ss: steady state (Day 12); for feT,ss / fe0-24: gMean; for fe0-24: fraction excreted in urine.
A short description of data set [3]: Pooled analysis of seven placebo-controlled trials: UACR in elderly (>=65 years) T2D patients with diabetic nephropathy (set 2). Type of data set: in vivo, human. How it is done: (§1) Seven randomised, double-blind, placebo-controlled trials (duration 24-52 weeks) of linagliptin (5 mg q.d.) as monotherapy or add-on to various glucose-lowering background therapies had data available for urinary albumin-to-creatinine ratio (UACR) and were eligible for this analysis (n=4113). Data after 24 weeks of treatment were generated to allow pooling and two sets were defined: 1) Diabetic nephropathy in earlier stages of T2D (with and without oral glucose-lowering background therapies, such as e.g. linagliptin monotherapy, linagliptin add-on to metformin or linagliptin add-on to metformin plus a sulphonylurea, or linagliptin plus metformin initial combination): participants from four 24-week pivotal phase III trials if they had persistent albuminuria, defined as 30≦UACR≦3000 mg/g (eGFR>30 ml/min/1.73 m^2) and stable treatment with an angiotensin-converting enzyme inhibitor (ACEi) or angiotensin II receptor blocker (ARB) at baseline (ongoing treatment with ACEi or ARB); 2) Diabetic nephropathy in elderly patients (various glucose-lowering background therapies including insulin, such as e.g. linagliptin monotherapy, linagliptin add-on to metformin or linagliptin add-on to metformin plus a sulphonylurea, or linagliptin plus metformin initial combination, or linagliptin in combination with basal insulin): patients from all seven trials, fulfilling UACR criteria 30≦UACR≦3000 mg/g (eGFR>30 ml/min/1.73 m^2) and aged ≧65 years (with or without ongoing treatment with ACEi or ARB). The endpoint in both sets was the percentage change in geometric mean UACR after 24 weeks.

A short description of data set [4]: Pooled analysis of four 24-week placebo-controlled trials: albuminuria (UACR) in T2D patients with early diabetic nephropathy on stable ACE/ARB (set 1). Type of data set: in vivo, human.
Description: Despite optimal therapy, people with type 2 diabetes (T2D) remain at high risk for kidney damage, manifest as albuminuria, and many develop progressive renal failure. Further, despite optimal therapy with inhibitors of the renin-angiotensin-aldosterone systeme (RAAS), patients with type 2 diabetes mellitus (T2DM) remain at an increased risk of progressive renal failure and cardiovascular disease, for which album inuria has emerged as a predictive biomarker. Linagliptin, a DPP-4 inhibitor, has previously shown evidence of albumin lowering on top of telmisartan in mice. We explored the clinical effect of linagliptin on albuminuria in T2D patients with early diabetic nephropathy. Four randomized, double-blind, 24-week, placebo-controlled trials of linagliptin (5 mg qd) on no, mono, or dual oral glucose-lowering background therapy (such as e.g. linagliptin monotherapy, linagliptin add-on to metformin or linagliptin add-on to metformin plus a sulphonylurea, or linagliptin plus metformin initial combination) had data available for urinary albumin-to-creatinine ratio (UACR) and were pooled for analysis (n=2472). Participants were included in this analysis if they had: i) 30≦UACR≦3000 mg/g creatinine; ii) stable treatment with ACE/ARBs ≧4 weeks prior and during the trial; and iii) eGFR>30 ml/min/1.73 m^2. The endpoint was the percentage change in geometric mean UACR. In this analysis, 492 (19.9%) patients met UACR and eGFR thresholds of whom 46% received stable ACE/ARB therapy (linagliptin n=168; placebo n=59). Mean baseline A1C and median UACR were 8.2% vs 8.5% and 76 vs 78 mg/g creatinine for the linagliptin and placebo groups, respectively. After 24 weeks, placebo-corrected changes in A1C and FPG were −0.71% and −26 mg/dl, respectively (both p<0.0001). […] Overall, kidney function and blood pressure were unchanged although more patients on placebo received new anti-hypertensive drugs (17% vs 11% with linagliptin). […] Linagliptin may have kidney-protective properties beyond glucose-lowering effects. This protective effect may be independent of race. Linagliptin may be useful for treating or lowering albuminuria on top of standard of care of angiotensin-converting enzyme (ACE) inhibition or angiotensin II receptor blockade (ARB) in T2DM patients with early diabetic nephropathy.
as §1

Data set [5] in a line: Meta-analysis of 13 phase 3 placebo-controlled trials: renal safety and outcomes in 5466 patients with type 2 diabetes.
Description: The aim of this study was to evaluate renal safety/outcomes with linagliptin in phase 3, randomized, double-blind, placebo-controlled trials (≧12 wks).
Data set [6] in a line: Safety and tolerability in people with type 2 diabetes.
Data set [7] deals with rats with 5/6 nephrectomy. As to the kind of experiment: Rat model of chronic kidney disease (5/6 nephrectomy), 130 days. The conditions noted are these: for glomerulosclerosis (glomerulosclerosic index) / decrease of glomerular size vs PBO-treated 5/6 NX rats / decrease of interstitial fibrosis vs PBO-treated 5/6 NX rats: 130 days; for osteopontin vs PBO-treated 5/6 NX rats: plasma biomarker.

The mark [8] stands for this setting: linagliptin 5 mg qd, after 24 weeks, set 1.
[9] abbreviates: LIN 0.083 mg/kg in chow, TEL 5 mg/kg/d in drinking water.

Some results are limits rather than exact numbers.

As for `CCOC(=O)[C@H](CCc1ccccc1)N[C@@H](C)C(=O)N1CCC[C@H]1C(=O)O` [enalapril, reference compound], in data set [1], the “effect on fasted or post-prandial glucose levels” value is recorded as “limited effects” and the “Podocalyxin expression (glomerular staining score 0-3)” value stood at 2.4±0.2. Moreover, in data set [1] (p<0.05), the “glomerular mesangial matrix expansion compared with diabetic vehicle” value was “reduced almost to control levels” and the “tubulointerstitial fibrosis compared with diabetic vehicle” value is recorded as “reduced almost to control levels”.

As to `CC#CCn1c(N2CCC[C@@H](N)C2)nc2c1c(=O)n(Cc1nc(C)c3ccccc3n1)c(=O)n2C` [linagliptin], the “feT,ss” value in data set [2] (1 mg oral once daily) is 3.34%. Further, in data set [2] (2.5 mg oral once daily), the “feT,ss” value is given as 3.06% and the fe0-24 is given as 0.139%. Further, in data set [2] (5 mg oral once daily), the “feT,ss” value was determined as 6.27% and the fe0-24 was determined as 0.453%. In addition, in data set [2] (10 mg oral once daily), the “feT,ss” value turned out to be 3.22% and the fe0-24 is reported as 0.919%. Also, the “mean accumulation ratio RA,AUC” value in data set [2] (doses above 1 mg once daily) is listed as at most 1.4. Moreover, the “excretion of unchanged drug” value in data set [2] (human, in vivo) was “primarily excreted unchanged via the bile”. In data set [2] (therapeutic oral dose levels), the “excretion via the kidney” value is on record as < 7 % of the administered oral dose and the “main route of excretion” value was “mainly excreted via the liver”. Also, in data set [1], the “expression of α-smooth muscle actin-positive myofibroblasts in interstitium and glomeruli” value is reported as “normalized”; the “effect on fasted or post-prandial glucose levels” value is listed as “limited effects”; the “Podocalyxin expression (glomerular staining score 0-3)” value is recorded as 2.3±0.2. Besides, in data set [1] (blood glucose independent), the “loss of podocytes (podocalyxin staining)” value is reported as “significantly reduces”. In data set [1] (p<0.05), the “glomerular mesangial matrix expansion compared with diabetic vehicle” value is “reduced almost to control levels”, the “tubulointerstitial fibrosis compared with diabetic vehicle” value is recorded as “reduced almost to control levels”, the “Urinary albumin excretion rates compared with enalapril-treated mice” value is “significantly decreased” and the “tubulointerstitial fibrosis compared with enalapril-treated mice” value is “significantly decreased”. Moreover, the “GLP-1R expression in the glomeruli (immunohistochemical staining)” value in data set [1] (linagliptin 3 mg/kg/day 12 weeks, vehicle db/db 1.67±0.07, healthy 2.15±0.1) came to 1.90±0.04. Besides, the “blood pressure and renal function” value in data set [3] (all seven studies) is recorded as “not affected to a clinically meaningful extent”. Moreover, the “treatment duration at which overall UACR effect occurs” value in data set [3] (as early as) is listed as 12 weeks. In data set [3] (linagliptin 5 mg q.d., 24 weeks, set 2), the “reduction of UACR versus placebo (trend)” value is on record as −25%. Besides, the “lowering of adjusted UACR” value in data set [3] (linagliptin 5 mg q.d., 24 weeks, set 2, aged >=65 years) amounted to 30%. Moreover, in data set [4] (24 weeks), the “kidney function and blood pressure” value is “unchanged”. Also, the “lowering of adjusted UACR (geometric mean)” value in data set [4] (linagliptin 5 mg qd, 24 weeks, on stable ACE/ARB, set 1) is listed as 33%. The “between group difference vs placebo in UACR” value in data set [4] (linagliptin 5 mg qd, 24 weeks, set 1) is listed as −29%. Besides, in data set [4] (setting [8]), the “placebo-corrected change in A1C (HbA1c)” value is on record as −0.71%, the “placebo-corrected change in FPG” value was -26 mg/dL and the “placebo-corrected change in fasting plasma glucose” value is -1.4 mmol/L. For the same molecule, the “patients with composite renal endpoint events (number)” value in data set [5] (linagliptin 5 mg qd, n=3505, placebo 306) came out at 448 patients. For the same molecule, the “patients with composite renal endpoint events (proportion)” value in data set [5] (linagliptin 5 mg qd, placebo 15.6%) was 12.8%. In data set [5] (patients <65 yrs), the “HR for the composite endpoint” value came out at 0.77. Besides, the “HR for the composite endpoint” value in data set [5] (patients >65 yrs) worked out at 1.04. Besides, in data set [5] (vs placebo), the “RR change: ARF” value is on record as −7%, the “RR change: death” value is given as −23%, the “RR change: macroalbuminuria” value was −12% and the “RR change: microalbuminuria” value is given as −15%. In data set [5] (vs placebo), the “RR change: new onset of CKD” value was −56% and the “RR change: worsening of CKD” value was −24%. The safety and tolerability result in data set [6] is listed as “placebo-like”. Moreover, in data set [7] (5/6 NX rats), the Blood pressure lowering entry is listed as “unaffected” and the “glomerulosclerosis (glomerulosclerosic index)” value is recorded as “trend towards decreased”. In data set [7] (setting [9]), the “decrease of glomerular size vs PBO-treated 5/6 NX rats” value is 18% and the “decrease of interstitial fibrosis vs PBO-treated 5/6 NX rats” value is recorded as 48%. In addition, the “osteopontin vs PBO-treated 5/6 NX rats” value in data set [7] was “decreases”. In addition, in data set [7] (rat, in vivo), the “plasma concentration of B2M vs PBO-treated 5/6 NX rats” value is reported as “decreases” and the “plasma concentration of TIMP-1 vs PBO-treated 5/6 NX rats” value is “decreases”.

For the molecule `CCCc1nc2c(C)cc(-c3nc4ccccc4n3C)cc2n1Cc1ccc(-c2ccccc2C(=O)O)cc1` [telmisartan, reference compound], in data set [7] (5/6 NX rats), the Blood pressure lowering is given as 31 mmHg, the TGF-β expression result is recorded as “significantly decreases” and the “glomerulosclerosis (glomerulosclerosic index)” value is reported as “trend towards decreased”. In data set [7] (setting [9]), the “decrease of urinary albumin/creatinine ratio vs PBO-treated 5/6 NX rats” value is on record as 92%, the “decrease of glomerular size vs PBO-treated 5/6 NX rats” value is listed as “not significantly” and the “decrease of interstitial fibrosis vs PBO-treated 5/6 NX rats” value is recorded as 24%. Also, in data set [7], the “osteopontin vs PBO-treated 5/6 NX rats” value is reported as “significantly decreases”.
